{
  "source": "patent US9993463B2",
  "about": "“Use of maleimide derivatives for preventing and treating cancer” (CENTOGENE AG, priority 2012, dated 2018)",
  "key": {"[1]": {"tested_on": "purified bovine brain tubulin", "assay": "Tubulin polymerisation turbidity assay", "assay_type": "biochemical", "conditions": "1 μM, 340 nm, 37° C.; for shape of OD curve over time / effect on tubulin polymerization: 60 min, FIG. 5C, untreated control sigmoid", "description": "Purified bovine brain tubulin was used to measure tubulin-polymerisation by determining turbidity in tubulin samples incubated with compound of example 6 (PDA-66), paclitaxel or nocodazole (all 1 μM) and 0.6% DMSO in water as negative control. Optical density (OD) was measured after initiation of tubulin assembly at a wavelength of 340 nm continuously for 60 min in 1 min intervals at a temperature of 37° C. in a plate reader (Tecan, Mainz, Germany)."}, "[2]": {"tested_on": "colon carcinoma cells (SW480)", "assay": "Cell proliferation assay (CASY, current exclusion), SW480", "assay_type": "cell-based", "conditions": "72 h", "description": "(§1) Human neural progenitor cells ReNcell VM (Millipore, Schwalbach, Germany) were cultured on laminin-coated culture-vessels. Culture medium consisted of DMEM/F12 supplemented with B27 media supplement, GlutaMax™, gentamycin and heparin sodium salt and growth factors EGF (epidermal growth factor) and bFGF (basic fibroblast growth factor). The human neuroblastoma cell line SH-SY5Y was obtained from the German Resource Centre for Biological Material DSMZ (Braunschweig, Germany). Cells were cultivated in DMEM, supplemented with 10% FBS, 1% Penicillin-Streptomycin, 4 mM L-Glutamine. The human T cell leukemia cell line Jurkat was obtained from the German Resource Centre for Biological Material DSMZ (Braunschweig, Germany). Cells were cultivated in RPMI 1640 medium, supplemented with 10% FBS, 1% Penicillin-Streptomycin. The murine melanoma cell line B16F10 was obtained from the American Type Culture Collection (ATCC, Manassas, USA), Cells were cultivated in DMEM/GM medium supplemented with 10% FBS, 1% Penicillin-Streptomycin. […]\n(§2) Cell proliferation and vitality were measured with a CASY Model TT (Roche, Mannheim, Germany) by electrical current exclusion method. […]\n(§3) In a further experiment further cancer cells were treated with compound of example 2.6 (PDA-66) with a concentration of 3 μM or 10 μM for 72 h and cell number was evaluated using the current exclusion method as described above."}, "[3]": {"tested_on": "apoptotic cells (AnnexinV/PI)", "assay": "AnnexinV/PI apoptosis detection (FACS)", "assay_type": "cell-based", "conditions": "FIG. 3", "description": "To determine the amount of apoptotic and necrotic cells a FITC AnnexinV Apoptosis Detection Kit I was used. For FACS analysis, cells were trypsinised and centrifuged at 100×g at RT for 5 min and washed with PBS without Ca2^+ and Mg^2+. Annexin V and propidium iodide (PI) were added accordingly to the manufacture's instructions. After 15 min incubation at room temperature on a shaker in the dark, the measurement was done by using FACSCalibur (Becton Dickinson, San Jose, USA) in combination with Cell Quest Pro software."}, "[4]": {"tested_on": "human neuronal progenitor cells (hNPCs, ReNcell VM)", "assay": "Cell proliferation and vitality assay (CASY, current exclusion), hNPCs", "assay_type": "cell-based", "conditions": "for proliferation relative to control: 72 h", "description": "(§4) Human neural progenitor cells ReNcell VM (Millipore, Schwalbach, Germany) were cultured on laminin-coated culture-vessels. Culture medium consisted of DMEM/F12 supplemented with B27 media supplement, GlutaMax™, gentamycin and heparin sodium salt and growth factors EGF (epidermal growth factor) and bFGF (basic fibroblast growth factor). The human neuroblastoma cell line SH-SY5Y was obtained from the German Resource Centre for Biological Material DSMZ (Braunschweig, Germany). Cells were cultivated in DMEM, supplemented with 10% FBS, 1% Penicillin-Streptomycin, 4 mM L-Glutamine. The human T cell leukemia cell line Jurkat was obtained from the German Resource Centre for Biological Material DSMZ (Braunschweig, Germany). Cells were cultivated in RPMI 1640 medium, supplemented with 10% FBS, 1% Penicillin-Streptomycin. The murine melanoma cell line B16F10 was obtained from the American Type Culture Collection (ATCC, Manassas, USA), Cells were cultivated in DMEM/GM medium supplemented with 10% FBS, 1% Penicillin-Streptomycin. The mammary gland/breast carcinoma cell line MCF-7 was obtained from American Type Culture Collection (ATCC, Manassas, USA) and cultivated according to standard proceedings in Eagle's Minimum Essential Medium (EMEM). The colon carcinoma cell line SW480 was obtained from American Type Culture Collection (ATCC, Manassas, USA) and cultivated according to standard proceedings in Leibovitz's L15 Medium. The lung carcinoma cell line A549 was obtained from American Type Culture Collection (ATCC, Manassas, USA) and cultivated according to standard proceedings in F-12K Medium (Kaighn's Modification of Ham's F-12 Medium). The liver carcinoma cell line Hep G2 was obtained from American Type Culture Collection (ATCC, Manassas, USA) and cultivated according to standard proceedings in Eagle's Minimum Essential Medium (EMEM).\n(§5) Cell proliferation and vitality were measured with a CASY Model TT (Roche, Mannheim, Germany) by electrical current exclusion method. Cells were seeded in defined numbers into 48-well-plates and proliferated for 24 h. Subsequently fresh medium was applied containing compounds or DMSO, in the following referred as control.\n5.1 Cytotoxic effects were evaluated using human fetal cells immortalized by transfection with the oncogen v-myc (Donato et al., Differential development of neuronal physiological responsiveness in two human neural stem cell lines. BMC Neurosci.; 8, 2007), also referred to herein as human neuronal progenitor cells, hNPCs, or ReNcell VM, providing a sensitive screening system and cancer cells, namely SH5Y5, Jurkat and B16F10 cells. Cytotoxic effects were measured by comparison of cells numbers of DMSO treated cells (control) and cell numbers of cells treated with compound of above mentioned example 2.6 (PDA66). Cell proliferation and vitality was measured with a CASY Model TT (Roche, Mannheim, Germany) by electrical current exclusion method. Cells were seeded in defined numbers into 48-well-plates and proliferated for 24 h: Subsequently fresh medium was applied containing compound of example 6 (3 μM) (PDA-66) or DMSO, in the following referred as control. Cell number and cell vitality was measured after 72 h."}, "[5]": {"tested_on": "liver carcinoma cells (HepG2)", "assay": "Cell proliferation assay (CASY, current exclusion), HepG2", "assay_type": "cell-based", "conditions": "72 h", "description": "as §1, §2, §3"}, "[6]": {"tested_on": "murine melanoma cells (B16F10)", "assay": "Cell proliferation assay (CASY, current exclusion), B16F10", "assay_type": "cell-based", "description": "as §4, §5\n(§6) 5.2 Furthermore cancer cells were treated with compound of example 2.6 (PDA-66) with a concentration of 3 μM for 72 h and cell number was evaluated using the current exclusion method as described above.\nas §3"}, "human immortalized cells": {"tested_on": "human immortalized cells", "assay": "Mitotic arrest in G2/M phase of cell cycle", "assay_type": "cell-based", "conditions": "after 16 h (highest amount), control 17.4±2.3%", "from_the_text": "As a measure the increase in cells with double DNA content was used, where at all points in time the amount of treated cells was higher in comparison to untreated cells."}, "[7]": {"tested_on": "human T cell leukemia (Jurkat) cells", "assay": "Cell proliferation assay (CASY, current exclusion), Jurkat", "assay_type": "cell-based", "conditions": "72 h", "description": "as §4, with “The lung carcinoma cell line A549 was obtained from American Type Culture Collection (ATCC, Manassas, USA) and cultivated according to standard proceedings in F-12K Medium (Kaighn's Modification of Ham's F-12 Medium). The liver carcinoma cell line Hep G2 was obtained from American Type Culture Collection (ATCC, Manassas, USA) and cultivated according to standard proceedings in Eagle's Minimum Essential Medium (EMEM).” left out\nas §2, §6, §3"}, "[8]": {"tested_on": "human neuroblastoma cells (SH5Y5)", "assay": "Cell proliferation assay (CASY, current exclusion), SH5Y5", "assay_type": "cell-based", "conditions": "SH5Y5, 3 μM, 72 h, FIG. 2", "description": "as §1, §2, §6"}, "[9]": {"tested_on": "MCF-7 cells (mammary gland/breast carcinoma)", "assay": "Cell proliferation assay (CASY, current exclusion), MCF-7", "assay_type": "cell-based", "conditions": "mamma carcinoma cells (printed MCF-1), 72 h", "description": "as §1, §2, §3"}, "[10]": {"tested_on": "lung carcinoma cells (A 549)", "assay": "Cell proliferation assay (CASY, current exclusion), A549", "assay_type": "cell-based", "conditions": "for proliferation relative to control: 72 h", "description": "as §4, with “The liver carcinoma cell line Hep G2 was obtained from American Type Culture Collection (ATCC, Manassas, USA) and cultivated according to standard proceedings in Eagle's Minimum Essential Medium (EMEM).” left out\nas §2, §3"}, "bovine neuronal tubulin": {"tested_on": "bovine neuronal tubulin", "assay": "VEC-DIC microscopy of tubulin polymerization", "assay_type": "biochemical", "conditions": "tubulin 2 mg/ml, 37° C., 1 h, FIG. 5A, B", "description": "In order to evaluate interference with tubulin polymerisation bovine neuronal tubulin was used, diluted in BRB80 buffer (80 mM PIPES, pH 6.8; MgCl2 1 mM; EGTA 1 mM) at a concentration of 2 mg/ml. After addition of 0.5 mM GTP and 10% DMSO, initiating tubulin polymerisation, the solution samples were incubated at 37° C. in the presence of compound of example 6 (PDA-66). After 1 h the samples were analysed by using video enhanced contrast differential interference contrast (VEC-DIC) microscopy."}},
  "data": [
    {"smiles": "CC(=O)O[C@H]1C(=O)[C@@]2(C)[C@H]([C@H](OC(=O)c3ccccc3)[C@]3(O)C[C@H](OC(=O)[C@H](O)[C@@H](NC(=O)c4ccccc4)c4ccccc4)C(C)=C1C3(C)C)[C@]1(OC(C)=O)CO[C@@H]1C[C@@H]2O", "note": "[paclitaxel]", "values": [
      {"measurement": "maximal OD after 60 min", "setting": "[1]", "result": 1.18, "unit": "rel. units"},
      {"measurement": "shape of OD curve over time / effect on tubulin polymerization", "setting": "[1]", "result": "comparable shape but with a steeper slope"}
    ]},
    {"smiles": "CC(=O)c1ccc(C2=C(c3c(C)[nH]c4ccccc34)C(=O)N(C)C2=O)cc1", "note": "[PDA-66, 3-(4-Acetylphenyl)-1-methyl-4-(2-methyl-1H-indol-3-yl)-1H-pyrrole-2,5-dione]", "values": [
      {"measurement": "maximal OD after 60 min", "setting": "[1]", "result": 1.04, "unit": "rel. units"},
      {"measurement": "shape of OD curve over time / effect on tubulin polymerization", "setting": "[1]", "result": "destabilized tubulin in a way comparable to nocodazole"},
      {"measurement": "proliferation relative to control", "setting": "[2]; SW480, 3 μM", "result": "61.3±0.6", "unit": "%"},
      {"measurement": "proliferation relative to control", "setting": "[2]; SW480, 10 μM", "result": "56.6±6.6", "unit": "%"},
      {"measurement": "apoptotic cells (AnnexinV+/PI− and AnnexinV+/PI+)", "setting": "[3]", "result": "increase of apoptotic cells"},
      {"measurement": "proliferation relative to control", "setting": "[4]; 3 μM", "result": "3.6±1.2", "unit": "%"},
      {"measurement": "number of vital cells (vitality) versus control", "setting": "[4]; 3 μM, FIG. 1 right panel", "result": "significantly lower"},
      {"measurement": "proliferation of immortalized cells (cell number) versus control", "setting": "[4]; 3 μM, up to 72 h, FIG. 1 left panel", "result": "no proliferation"},
      {"measurement": "proliferation relative to control", "setting": "[4]; 10 μM", "result": "0.9±0.2", "unit": "%"},
      {"measurement": "effect of concentration on proliferation of immortalized cells", "setting": "[4]; FIG. 6", "result": "dose-dependent effect"},
      {"measurement": "IC50", "setting": "[4]; Homo sapiens, ReNcell VM", "result": 0.532, "unit": "µM"},
      {"measurement": "proliferation relative to control", "setting": "[5]; HepG2, 3 μM", "result": "74.8±6.3", "unit": "%"},
      {"measurement": "proliferation relative to control", "setting": "[5]; HepG2, 10 μM", "result": "47.2±3.8", "unit": "%"},
      {"measurement": "proliferation relative to control", "setting": "[6]; B16F10, 3 μM, 72 h", "result": "7.2±1.3", "unit": "%"},
      {"measurement": "cell numbers versus control", "setting": "[6]; B16F10, 3 μM, 72 h, FIG. 2", "result": "reduced or attenuated significantly"},
      {"measurement": "proliferation relative to control", "setting": "[6]; B16F10, at 10 (unit not given), 72 h", "result": "8.3±2.6", "unit": "%"},
      {"measurement": "IC50", "setting": "[6]; Mus musculus, B16-F10, B16F10 cells", "result": 1.07, "unit": "µM"},
      {"measurement": "amount of cells in G2/M phase of cell cycle", "setting": "human immortalized cells", "result": "68.9±10.3", "unit": "%"},
      {"measurement": "proliferation relative to control", "setting": "[7]; 3 μM", "result": "18.2±2.2", "unit": "%"},
      {"measurement": "cell numbers versus control", "setting": "[7]; 3 μM, FIG. 2", "result": "reduced or attenuated significantly"},
      {"measurement": "proliferation relative to control", "setting": "[7]; 10 μM", "result": "31.9±5.9", "unit": "%"},
      {"measurement": "cell numbers versus control", "setting": "[8]", "result": "reduced or attenuated significantly"},
      {"measurement": "proliferation relative to control", "setting": "[9]; 3 μM", "result": "43.0±2.8", "unit": "%"},
      {"measurement": "proliferation relative to control", "setting": "[9]; 10 μM", "result": "38.3±11.8", "unit": "%"},
      {"measurement": "proliferation relative to control", "setting": "[10]; A 549, 3 μM", "result": "57.1±9.2", "unit": "%"},
      {"measurement": "proliferation relative to control", "setting": "[10]; A 549, 10 μM", "result": "65.7±8.0", "unit": "%"},
      {"measurement": "IC50", "setting": "[10]; Homo sapiens, A549 cells", "result": 8.98, "unit": "µM"},
      {"measurement": "microtubule (MT) polymerization by VEC-DIC microscopy", "setting": "bovine neuronal tubulin", "result": "hindered the MT-polymerization"}
    ]},
    {"smiles": "COC(=O)Nc1nc2ccc(C(=O)c3cccs3)cc2[nH]1", "note": "[nocodazole]", "values": [
      {"measurement": "maximal OD after 60 min", "setting": "[1]", "result": 1.01, "unit": "rel. units"},
      {"measurement": "shape of OD curve over time / effect on tubulin polymerization", "setting": "[1]", "result": "nearly linear curve"}
    ]}
  ]
}
